Columns and labels:
Test in all cases: Kinase selectivity, scanMAX Kinase assay panel (DiscoverX), % control at 1 uM
Assay type in all cases: binding
[1] = target: T1, scanMAX Kinase assay panel (Homo sapiens, UniProt O00506); settings: YSK1; 1 uM; read-out: Percent Control (%)
T1 construct: purchased DiscoverX
How it was run: (§1)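 Single-point screen at 1 uM compound in DMSO. Lower % control means stronger inhibition, with the cutoff for activity set at <35%.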

[2] = target: T2, scanMAX Kinase assay panel (Homo sapiens, UniProt P08069); settings: IGF1R; 1 uM; read-out: Percent Control (%)
T2 construct: purchased DiscoverX
How it was run: as §1

[3] = target: T3, scanMAX Kinase assay panel (Homo sapiens, UniProt P37173); settings: TGFBR2; 1 uM; read-out: Percent Control (%)
T3 construct: purchased DiscoverX
T3 sequence (P37173 23-567): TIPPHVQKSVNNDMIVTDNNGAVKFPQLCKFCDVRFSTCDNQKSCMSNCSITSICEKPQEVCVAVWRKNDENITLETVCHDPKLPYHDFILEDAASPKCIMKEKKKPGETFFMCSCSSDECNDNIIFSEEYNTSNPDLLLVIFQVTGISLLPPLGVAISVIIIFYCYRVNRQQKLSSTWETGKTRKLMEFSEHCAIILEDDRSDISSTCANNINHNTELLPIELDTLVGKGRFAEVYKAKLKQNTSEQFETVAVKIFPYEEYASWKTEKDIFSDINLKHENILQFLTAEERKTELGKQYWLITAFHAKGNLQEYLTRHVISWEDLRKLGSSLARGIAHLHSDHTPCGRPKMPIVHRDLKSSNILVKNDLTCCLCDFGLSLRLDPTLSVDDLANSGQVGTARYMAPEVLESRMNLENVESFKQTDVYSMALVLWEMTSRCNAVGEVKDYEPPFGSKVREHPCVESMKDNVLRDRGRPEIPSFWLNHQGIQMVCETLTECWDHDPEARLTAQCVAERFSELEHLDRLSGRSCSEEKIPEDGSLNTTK
How it was run: as §1

[4] = target: T4, scanMAX Kinase assay panel (Homo sapiens, UniProt P42681); settings: TXK; 1 uM; read-out: Percent Control (%)
T4 construct: purchased DiscoverX
T4 sequence (P42681 1-527): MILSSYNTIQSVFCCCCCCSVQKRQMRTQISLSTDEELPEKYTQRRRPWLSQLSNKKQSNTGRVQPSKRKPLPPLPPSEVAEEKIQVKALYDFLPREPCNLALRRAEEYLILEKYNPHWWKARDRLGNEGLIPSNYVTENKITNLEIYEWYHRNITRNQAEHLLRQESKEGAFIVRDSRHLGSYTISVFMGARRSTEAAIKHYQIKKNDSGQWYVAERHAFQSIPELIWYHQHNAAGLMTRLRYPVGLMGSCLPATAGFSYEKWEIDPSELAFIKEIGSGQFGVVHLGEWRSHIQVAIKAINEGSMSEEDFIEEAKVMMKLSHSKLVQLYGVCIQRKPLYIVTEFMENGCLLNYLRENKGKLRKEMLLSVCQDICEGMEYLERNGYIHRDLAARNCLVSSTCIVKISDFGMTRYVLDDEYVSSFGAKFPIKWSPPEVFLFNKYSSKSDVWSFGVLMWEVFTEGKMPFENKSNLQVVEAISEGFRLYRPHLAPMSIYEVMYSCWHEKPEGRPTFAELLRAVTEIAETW
How it was run: as §1

[5] = target: T5, scanMAX Kinase assay panel (Homo sapiens, UniProt Q13464); settings: ROCK1; 1 uM; read-out: Percent Control (%)
T5 construct: purchased DiscoverX
T5 sequence (Q13464 whole entry): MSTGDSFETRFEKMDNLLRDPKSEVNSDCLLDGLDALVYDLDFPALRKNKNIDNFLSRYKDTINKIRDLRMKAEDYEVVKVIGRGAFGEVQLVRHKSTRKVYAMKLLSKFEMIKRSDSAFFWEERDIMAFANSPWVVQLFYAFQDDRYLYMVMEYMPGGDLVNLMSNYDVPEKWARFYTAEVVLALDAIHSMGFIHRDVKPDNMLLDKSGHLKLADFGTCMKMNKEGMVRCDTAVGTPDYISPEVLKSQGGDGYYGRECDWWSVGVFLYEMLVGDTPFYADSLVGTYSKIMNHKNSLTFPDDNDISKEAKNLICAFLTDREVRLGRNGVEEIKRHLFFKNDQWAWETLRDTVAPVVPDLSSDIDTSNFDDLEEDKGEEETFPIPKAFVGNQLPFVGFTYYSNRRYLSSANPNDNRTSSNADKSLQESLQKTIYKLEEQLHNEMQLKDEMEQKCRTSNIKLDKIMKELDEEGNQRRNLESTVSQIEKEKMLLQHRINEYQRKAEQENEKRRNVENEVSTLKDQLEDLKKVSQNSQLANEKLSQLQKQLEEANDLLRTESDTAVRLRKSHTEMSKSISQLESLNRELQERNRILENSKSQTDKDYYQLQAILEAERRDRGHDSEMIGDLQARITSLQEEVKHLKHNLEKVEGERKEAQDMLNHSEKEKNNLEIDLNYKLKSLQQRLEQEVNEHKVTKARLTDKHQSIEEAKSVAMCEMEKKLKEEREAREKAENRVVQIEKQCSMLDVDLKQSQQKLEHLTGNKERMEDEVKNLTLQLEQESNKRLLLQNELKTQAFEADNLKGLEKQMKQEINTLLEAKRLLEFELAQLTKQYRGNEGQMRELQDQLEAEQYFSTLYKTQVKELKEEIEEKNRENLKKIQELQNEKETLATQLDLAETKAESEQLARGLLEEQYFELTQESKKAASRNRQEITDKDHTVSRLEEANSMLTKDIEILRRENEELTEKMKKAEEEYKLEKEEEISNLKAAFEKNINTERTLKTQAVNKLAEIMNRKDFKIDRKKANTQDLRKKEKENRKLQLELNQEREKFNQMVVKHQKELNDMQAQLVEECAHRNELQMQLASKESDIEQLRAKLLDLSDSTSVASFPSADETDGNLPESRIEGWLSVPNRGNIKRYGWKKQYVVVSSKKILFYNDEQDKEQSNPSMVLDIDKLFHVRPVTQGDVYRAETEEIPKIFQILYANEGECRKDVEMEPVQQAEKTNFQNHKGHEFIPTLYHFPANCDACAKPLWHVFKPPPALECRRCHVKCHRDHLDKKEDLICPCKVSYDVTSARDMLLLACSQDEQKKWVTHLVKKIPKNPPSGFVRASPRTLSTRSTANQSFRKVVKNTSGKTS
How it was run: as §1

[6] = target: T6, scanMAX Kinase assay panel (Homo sapiens, UniProt Q13705); settings: ACVR2B; 1 uM; read-out: Percent Control (%)
T6 construct: purchased DiscoverX
T6 sequence (Q13705 19-512): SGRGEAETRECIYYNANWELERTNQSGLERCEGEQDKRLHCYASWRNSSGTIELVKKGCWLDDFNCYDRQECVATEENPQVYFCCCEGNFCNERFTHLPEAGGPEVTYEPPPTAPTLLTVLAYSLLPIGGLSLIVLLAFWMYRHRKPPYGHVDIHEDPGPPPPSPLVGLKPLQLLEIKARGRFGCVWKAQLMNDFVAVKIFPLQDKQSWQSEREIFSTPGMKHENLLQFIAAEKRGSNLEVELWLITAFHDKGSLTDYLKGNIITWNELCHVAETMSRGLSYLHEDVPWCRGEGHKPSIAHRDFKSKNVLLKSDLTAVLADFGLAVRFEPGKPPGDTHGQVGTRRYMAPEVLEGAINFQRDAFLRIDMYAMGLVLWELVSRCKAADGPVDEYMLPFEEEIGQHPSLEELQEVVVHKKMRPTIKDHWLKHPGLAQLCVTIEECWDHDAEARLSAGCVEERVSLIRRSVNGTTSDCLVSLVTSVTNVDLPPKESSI
How it was run: as §1

[7] = target: T7, scanMAX Kinase assay panel (Homo sapiens, UniProt Q15746); settings: MYLK; 1 uM; read-out: Percent Control (%)
T7 construct: purchased DiscoverX
T7 sequence (Q15746 whole entry): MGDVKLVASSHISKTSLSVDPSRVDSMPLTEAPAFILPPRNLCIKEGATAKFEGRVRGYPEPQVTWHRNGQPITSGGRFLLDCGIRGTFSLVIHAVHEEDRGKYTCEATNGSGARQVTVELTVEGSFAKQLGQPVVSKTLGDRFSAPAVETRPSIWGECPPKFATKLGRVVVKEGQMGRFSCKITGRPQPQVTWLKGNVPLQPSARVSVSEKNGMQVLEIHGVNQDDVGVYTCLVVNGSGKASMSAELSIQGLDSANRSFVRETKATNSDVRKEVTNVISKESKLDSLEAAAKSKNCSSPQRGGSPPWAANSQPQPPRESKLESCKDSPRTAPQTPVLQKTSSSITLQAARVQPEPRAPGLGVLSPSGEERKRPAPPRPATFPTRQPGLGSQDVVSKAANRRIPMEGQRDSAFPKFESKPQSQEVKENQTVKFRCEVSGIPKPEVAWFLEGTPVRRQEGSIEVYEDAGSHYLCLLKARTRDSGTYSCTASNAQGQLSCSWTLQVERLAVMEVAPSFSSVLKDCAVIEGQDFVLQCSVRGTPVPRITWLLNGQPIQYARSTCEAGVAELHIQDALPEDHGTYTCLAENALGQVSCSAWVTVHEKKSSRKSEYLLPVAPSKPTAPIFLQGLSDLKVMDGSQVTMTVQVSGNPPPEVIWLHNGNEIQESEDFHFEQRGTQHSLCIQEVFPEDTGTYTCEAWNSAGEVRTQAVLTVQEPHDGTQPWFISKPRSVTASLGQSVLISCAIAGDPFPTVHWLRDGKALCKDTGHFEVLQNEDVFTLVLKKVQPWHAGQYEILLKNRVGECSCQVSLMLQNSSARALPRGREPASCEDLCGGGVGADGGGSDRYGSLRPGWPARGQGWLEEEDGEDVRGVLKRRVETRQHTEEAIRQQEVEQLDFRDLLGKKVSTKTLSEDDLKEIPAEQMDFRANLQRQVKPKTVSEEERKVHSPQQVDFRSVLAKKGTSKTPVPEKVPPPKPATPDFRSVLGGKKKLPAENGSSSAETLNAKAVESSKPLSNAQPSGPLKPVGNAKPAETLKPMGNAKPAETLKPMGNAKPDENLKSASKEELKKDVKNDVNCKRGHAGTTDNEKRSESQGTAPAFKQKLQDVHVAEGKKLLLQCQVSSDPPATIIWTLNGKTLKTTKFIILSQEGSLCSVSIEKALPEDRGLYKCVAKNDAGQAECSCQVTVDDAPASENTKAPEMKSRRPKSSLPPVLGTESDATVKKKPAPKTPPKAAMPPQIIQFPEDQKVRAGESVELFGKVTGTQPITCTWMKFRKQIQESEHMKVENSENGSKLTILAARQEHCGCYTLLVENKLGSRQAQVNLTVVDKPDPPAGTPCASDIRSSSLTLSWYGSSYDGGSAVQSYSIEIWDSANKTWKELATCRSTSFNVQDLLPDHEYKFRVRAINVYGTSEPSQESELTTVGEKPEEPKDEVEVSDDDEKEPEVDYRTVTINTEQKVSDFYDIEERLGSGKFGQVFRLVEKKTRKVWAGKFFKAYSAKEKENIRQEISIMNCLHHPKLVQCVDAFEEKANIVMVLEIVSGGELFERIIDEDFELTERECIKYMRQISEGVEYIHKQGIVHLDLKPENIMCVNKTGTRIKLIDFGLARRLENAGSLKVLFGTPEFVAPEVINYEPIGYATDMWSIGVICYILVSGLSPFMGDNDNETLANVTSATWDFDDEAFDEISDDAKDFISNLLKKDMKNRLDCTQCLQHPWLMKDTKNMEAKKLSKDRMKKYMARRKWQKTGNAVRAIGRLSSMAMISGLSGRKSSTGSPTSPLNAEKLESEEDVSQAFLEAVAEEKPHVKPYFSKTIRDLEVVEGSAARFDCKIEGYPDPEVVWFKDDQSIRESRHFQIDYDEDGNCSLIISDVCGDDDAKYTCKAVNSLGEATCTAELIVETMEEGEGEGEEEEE
How it was run: as §1

[8] = target: T8, scanMAX Kinase assay panel (Homo sapiens, UniProt Q99683); settings: ASK1; 1 uM; read-out: Percent Control (%)
T8 construct: purchased DiscoverX
T8 sequence (Q99683 1-1374): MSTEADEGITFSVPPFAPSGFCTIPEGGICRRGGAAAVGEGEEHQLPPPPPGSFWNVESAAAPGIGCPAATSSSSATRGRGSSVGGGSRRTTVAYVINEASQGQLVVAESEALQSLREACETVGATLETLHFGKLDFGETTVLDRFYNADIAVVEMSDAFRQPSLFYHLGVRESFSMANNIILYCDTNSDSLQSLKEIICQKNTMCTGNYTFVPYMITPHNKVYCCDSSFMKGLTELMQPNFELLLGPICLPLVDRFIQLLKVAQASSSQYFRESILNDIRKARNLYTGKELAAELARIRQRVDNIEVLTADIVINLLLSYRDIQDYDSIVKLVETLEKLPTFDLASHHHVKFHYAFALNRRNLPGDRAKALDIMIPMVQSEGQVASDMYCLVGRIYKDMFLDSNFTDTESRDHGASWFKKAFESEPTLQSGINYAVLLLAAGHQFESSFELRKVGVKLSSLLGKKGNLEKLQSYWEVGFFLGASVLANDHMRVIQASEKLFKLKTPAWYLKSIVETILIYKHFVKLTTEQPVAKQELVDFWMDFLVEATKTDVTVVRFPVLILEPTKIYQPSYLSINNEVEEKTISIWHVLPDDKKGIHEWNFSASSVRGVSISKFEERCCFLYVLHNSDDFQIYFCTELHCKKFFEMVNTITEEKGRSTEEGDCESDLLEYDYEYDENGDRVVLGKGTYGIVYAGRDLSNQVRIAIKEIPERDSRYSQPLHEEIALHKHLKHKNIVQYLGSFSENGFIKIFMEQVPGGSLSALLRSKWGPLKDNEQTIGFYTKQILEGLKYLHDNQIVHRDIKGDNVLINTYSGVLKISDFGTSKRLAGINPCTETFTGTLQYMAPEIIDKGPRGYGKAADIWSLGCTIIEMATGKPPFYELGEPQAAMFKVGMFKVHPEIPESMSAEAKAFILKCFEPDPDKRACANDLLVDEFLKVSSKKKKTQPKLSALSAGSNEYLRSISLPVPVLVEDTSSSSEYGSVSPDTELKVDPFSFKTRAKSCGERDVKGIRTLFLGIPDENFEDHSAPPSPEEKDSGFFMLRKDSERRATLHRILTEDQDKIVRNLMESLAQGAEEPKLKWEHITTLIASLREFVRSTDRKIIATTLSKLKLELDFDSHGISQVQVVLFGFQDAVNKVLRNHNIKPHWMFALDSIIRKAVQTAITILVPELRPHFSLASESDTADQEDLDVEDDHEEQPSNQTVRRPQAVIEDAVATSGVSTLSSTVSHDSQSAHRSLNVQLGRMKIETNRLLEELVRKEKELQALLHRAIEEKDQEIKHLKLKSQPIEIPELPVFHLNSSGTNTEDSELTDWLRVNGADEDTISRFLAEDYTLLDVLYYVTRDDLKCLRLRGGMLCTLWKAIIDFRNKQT
How it was run: as §1

T1 sequence (O00506 whole entry): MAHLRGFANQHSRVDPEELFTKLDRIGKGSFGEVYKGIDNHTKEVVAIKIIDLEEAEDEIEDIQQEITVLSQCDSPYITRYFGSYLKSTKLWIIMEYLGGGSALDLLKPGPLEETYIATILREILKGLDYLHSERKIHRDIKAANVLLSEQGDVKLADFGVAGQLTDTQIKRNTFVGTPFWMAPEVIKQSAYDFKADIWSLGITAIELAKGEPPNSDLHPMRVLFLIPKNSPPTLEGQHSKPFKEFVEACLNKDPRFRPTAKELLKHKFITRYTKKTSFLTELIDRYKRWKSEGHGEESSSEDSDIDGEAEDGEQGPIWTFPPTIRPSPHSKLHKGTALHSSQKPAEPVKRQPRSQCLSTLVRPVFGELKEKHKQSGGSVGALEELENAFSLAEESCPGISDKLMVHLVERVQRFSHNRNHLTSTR

Cc1ccc(C(=O)Nc2ccc(CN3CCN(C)CC3)c(C(F)(F)F)c2)cc1C#Cc1cnc2c(Nc3cnn(C)c3)cccn12 [Example 1, 4-methyl-3-((8-((1-methyl-1H-pyrazol-4-yl)amino)imidazo[1,2-a]pyridin-3-yl)ethynyl)-N-(4-((4-methylpiperazin-1-yl)methyl)-3-(trifluoromethyl)phenyl)benzamide]
remaining binding at 1 µM [1]: 90% | remaining binding at 1 µM [2]: 56% | remaining binding at 1 µM [3]: 24% | remaining binding at 1 µM [4]: 1% | remaining binding at 1 µM [5]: 89% | remaining binding at 1 µM [6]: 93% | remaining binding at 1 µM [7]: 64% | remaining binding at 1 µM [8]: 100%

Cc1cn(-c2cc(NC(=O)c3ccc(C)c(C#Cc4cnc5c(Nc6cnn(C)c6)cccn45)c3)cc(C(F)(F)F)c2)cn1 [Example 12, 4-methyl-N-(3-(4-methyl-1H-imidazol-1-yl)-5-(trifluoromethyl)phenyl)-3-((8-((1-methyl-1H-pyrazol-4-yl)amino)imidazo[1,2-a]pyridin-3-yl)ethynyl)benzamide]
remaining binding at 1 µM [1]: 86% | remaining binding at 1 µM [2]: 100% | remaining binding at 1 µM [3]: 94% | remaining binding at 1 µM [4]: 3% | remaining binding at 1 µM [5]: 100% | remaining binding at 1 µM [6]: 96% | remaining binding at 1 µM [7]: 100% | remaining binding at 1 µM [8]: 95%

Cc1ccc(NC(=O)C2(C(=O)Nc3ccc(F)cc3)CC2)cc1C#Cc1cnc2c(Nc3cnn(C(C)C)c3)cccn12 [Example 78]
remaining binding at 1 µM [1]: 100% | remaining binding at 1 µM [2]: 100% | remaining binding at 1 µM [3]: 100% | remaining binding at 1 µM [4]: 91% | remaining binding at 1 µM [5]: 100% | remaining binding at 1 µM [6]: 94% | remaining binding at 1 µM [7]: 100% | remaining binding at 1 µM [8]: 100%
